Results taken from the supplement of paper PMC13380429.

Assays:
Details in all cases: 72 h
Calu-3 [1] = assay: cell viability relative to DMSO; higher = less toxic
Vero E6 [2] = assay: as above
U2OS [3] = assay: as above
Caco-2 [4] = assay: as above
HepG2 [5] = assay: as above
Calu-3 [6] = assay: drug sensitivity score (DSS) for viability; higher = more toxic; extreme values may be limits of the assay
Vero E6 [7] = assay: as above
U2OS [8] = assay: as above
Caco-2 [9] = assay: as above
HepG2 [10] = assay: as above
Vero E6 [11] = assay: relative viability EC50 (midpoint between 100% and the lowest measured viability); higher = less toxic
U2OS [12] = assay: as above
Caco-2 [13] = assay: as above
HepG2 [14] = assay: as above

| Structure (SMILES) | cell viability (Calu-3 [1]; 1 nM) [%] | cell viability (Calu-3 [1]; 10 nM) [%] | cell viability (Calu-3 [1]; 100 nM) [%] | cell viability (Calu-3 [1]; 1000 nM) [%] | cell viability (Calu-3 [1]; 10000 nM) [%] | cell viability (Vero E6 [2]; 1 nM) [%] | cell viability (Vero E6 [2]; 10 nM) [%] | cell viability (Vero E6 [2]; 100 nM) [%] | cell viability (Vero E6 [2]; 1000 nM) [%] | cell viability (Vero E6 [2]; 10000 nM) [%] | cell viability (U2OS [3]; 1 nM) [%] | cell viability (U2OS [3]; 10 nM) [%] | cell viability (U2OS [3]; 100 nM) [%] | cell viability (U2OS [3]; 1000 nM) [%] | cell viability (U2OS [3]; 10000 nM) [%] | cell viability (Caco-2 [4]; 1 nM) [%] | cell viability (Caco-2 [4]; 10 nM) [%] | cell viability (Caco-2 [4]; 100 nM) [%] | cell viability (Caco-2 [4]; 1000 nM) [%] | cell viability (Caco-2 [4]; 10000 nM) [%] | cell viability (HepG2 [5]; 1 nM) [%] | cell viability (HepG2 [5]; 10 nM) [%] | cell viability (HepG2 [5]; 100 nM) [%] | cell viability (HepG2 [5]; 1000 nM) [%] | cell viability (HepG2 [5]; 10000 nM) [%] | drug sensitivity score (Calu-3 [6]) | drug sensitivity score (Vero E6 [7]) | drug sensitivity score (U2OS [8]) | drug sensitivity score (Caco-2 [9]) | drug sensitivity score (HepG2 [10]) | relative viability EC50 (Vero E6 [11]) [µM] | relative viability EC50 (U2OS [12]) [µM] | relative viability EC50 (Caco-2 [13]) [µM] | relative viability EC50 (HepG2 [14]) [µM] |
| --- | --- | --- | --- | --- | --- | --- | --- | --- | --- | --- | --- | --- | --- | --- | --- | --- | --- | --- | --- | --- | --- | --- | --- | --- | --- | --- | --- | --- | --- | --- | --- | --- | --- | --- |
| Nc1nc2cc(-c3ccc4ncc(C(=O)N5CCOCC5)n4c3)ccc2o1 [MLN1117] | 94.2 | 102 | 104 | 96.8 | 64.7 | 104 | 106 | 106 | 95.1 | 85.8 | 96.4 | 95.2 | 106 | 91.2 | 84.3 | 107 | 101 | 107 | 89.9 | 66.6 | 98.1 | 101 | 102 | 96.3 | 54.5 | 2.2 | 0.5 | 1 | 3 | 2.9 | > 10 | > 10 | – | – |
| COc1ccc(C(=O)C2CCN(CC(=O)N(Cc3nc4c(c(=O)[nH]3)COCC4)CC3CC3)CC2)cc1 [NVP-TNKS656] | 95.3 | 97.3 | 70.3 | 68.2 | 82.7 | 105 | 101 | 83.1 | 63.1 | 65.9 | 99 | 96.7 | 91.5 | 88.9 | 90.6 | 110 | 96.7 | 92.9 | 109 | 93.3 | 98.7 | 106 | 106 | 106 | 93.6 | 9.5 | 8.7 | 0.3 | 0 | 0 | – | > 10 | > 10 | > 10 |
| Oc1cccc(Nc2ncc(F)c(Nc3cccc(O)c3)n2)c1 [R112] | 92.2 | 100 | 92.6 | 92.6 | 74.8 | 103 | 102 | 99.9 | 99 | 46.6 | 97.6 | 101 | 95.6 | 98.5 | 30.2 | 103 | 107 | 99.1 | 94.7 | 62.1 | 106 | 102 | 107 | 96.1 | 30.9 | 1.4 | 3 | 4 | 2.7 | 4.4 | 3.03 | 3.01 | – | 2.72 |
